The test system of data set [1] is Apis mellifera. Particulars: acute; duration: 48 hours; oral; unspecified; mortality.
Data set [2] relates to Anas platyrhynchos.
For data set [3], the system named is Colinus virginianus. Particulars: oral.
Data set [4] concerns Rattus norvegicus. The conditions noted are these: for NOAEL: chronic.
Data set [5] deals with Tagia sp. The conditions noted are these: acute; mortality.
Data set [6] relates to Chrysoperla externa. The conditions noted are these: not reported; mortality.
Data set [7] concerns Aphidius rhopalosiphi. Particulars: acute; duration: 7 days; mortality.
Data set [8] deals with Canidae. Particulars: subchronic; duration: 90 days; oral; Dog Other; body weight.
Data set [9] concerns Daphnia magna. Particulars: chronic/long-term; duration: 21 days; reproduction.
For data set [10], the system named is Oncorhynchus mykiss.
The mark [11] stands for this setting: short-term, oral, feed, mortality.

Some results are limits rather than exact numbers.

Regarding `CCS(=O)(=O)c1cccnc1S(=O)(=O)NC(=O)Nc1nc(OC)cc(OC)n1` [Rimsulfuron], the LD50 was more than 100 µg/piece in data set [1]; more than 2250 mg/kg in [2] (acute, oral, unspecified, mortality); more than 1610 mg/kg-day in [2] (setting [11]); more than 2250 mg/kg in data set [3] (acute, mortality); more than 5000 mg/kg in data set [4] (acute, oral, mortality). The NOAEL in [2] (reproductive) was 1250 mg/kg; in data set [4] it was 3000 mg/kg-day; in data set [4] (duration: 2 years, oral, body weight), 11.8 mg/kg-day; in data set [8], 9.63 mg/kg-day. The NOEC was 5620 mg/kg in data set [2] (short-term, oral, feed); 5620 mg/kg-day in data set [3] (short-term, diet); 1 mg/L in data set [9]; 125 mg/L in [10] (chronic/long-term, duration: 21 days, growth). In addition, the LC50 was more than 5620 mg/kg in [2] (setting [11]); more than 5620 mg/kg in data set [3] (acute, diet, mortality); more than 1000 mg/kg in data set [5]; more than 390 µg/mL in data set [10] (acute, duration: 96 hours, mortality). The LEL is 37500 g/ha in data set [6] and less than 37.5 g/ha in data set [7].

The record behind these values is EPA's ToxValDB 9.5 (doi:10.2903/j.efsa.2005.45r).
